Assay results taken from patent US9839642B2, “Beta-tetrazolyl-propionic acids as metallo-beta-lactamase inhibitors” (priority 2014, dated 2017).

What was measured:
[1] = test system: Escherichia coli expressing NDM-1 (CLB30016); assay: Antibiotic potentiation activity: synergistic concentration (MITC95) with imipenem, growth by OD600; assay type: cell-based; details: 95% inhibition of bacterial growth, strain CLB30016
How it was run: (§1)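 Colonies from overnight agar plates (35 °C) were suspended in saline and diluted 1:100 into 1.1× CAMHB. Inhibitor (final 200 μM to 0.195 μM) was combined with imipenem at 1 or 4 μg/ml, incubated 22–24 h at 35 °C, and absorbance read; MITC95 is the lowest inhibitor concentration giving 95% growth inhibition.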

[2] = test system: Serratia marcescens expressing IMP-1 (CL5741); assay: as above; assay type: cell-based; details: 95% inhibition of bacterial growth, strain CL5741
How it was run: as §1

[3] = test system: Klebsiella pneumoniae expressing VIM-1 (IHMA599644); assay: as above; assay type: cell-based; details: 95% inhibition of bacterial growth, strain IHMA599644
How it was run: as §1

VIM-1 = VIM-1 (Pseudomonas aeruginosa, UniProt A0A0F7KYQ8); assay: Enzyme activity: determination of IC50, fluorescence assay with CCF2-FA substrate; assay type: biochemical; details: enzyme 30 pM, CCF2-FA 1.25 μM, 2 hours at 25° C.; read-out: VIM1 IC50
How it was run: (§2)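 Final enzyme levels differed by target: 1 pM NDM-1, 2 pM IMP-1, 30 pM VIM-1. Each was incubated 2 hours at 25° C with test compound and 1.25 μM CCF2-FA, and 460 nm fluorescence (405 nm excitation) was fitted by 4-parameter curve to obtain IC50.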

NDM-1 = NDM-1 (Klebsiella pneumoniae, UniProt C7C422); assay: as above; assay type: biochemical; details: enzyme 1 pM, CCF2-FA 1.25 μM, 2 hours at 25° C.; read-out: NDM1 IC50
Chain of NDM-1 (C7C422 29-270, looked up, species assumed): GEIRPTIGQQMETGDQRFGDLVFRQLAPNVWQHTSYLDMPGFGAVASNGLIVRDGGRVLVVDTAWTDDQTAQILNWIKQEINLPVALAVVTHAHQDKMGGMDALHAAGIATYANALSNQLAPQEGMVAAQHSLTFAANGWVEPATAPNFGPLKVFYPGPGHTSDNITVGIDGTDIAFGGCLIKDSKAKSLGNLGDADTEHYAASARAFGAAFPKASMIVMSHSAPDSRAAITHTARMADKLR
How it was run: as §2

IMP-1 = IMP-1 (Serratia marcescens, UniProt P52699); assay: as above; assay type: biochemical; details: enzyme 2 pM, CCF2-FA 1.25 μM, 2 hours at 25° C.; read-out: IMP1 IC50
Chain of IMP-1 (P52699 19-246, looked up, species assumed): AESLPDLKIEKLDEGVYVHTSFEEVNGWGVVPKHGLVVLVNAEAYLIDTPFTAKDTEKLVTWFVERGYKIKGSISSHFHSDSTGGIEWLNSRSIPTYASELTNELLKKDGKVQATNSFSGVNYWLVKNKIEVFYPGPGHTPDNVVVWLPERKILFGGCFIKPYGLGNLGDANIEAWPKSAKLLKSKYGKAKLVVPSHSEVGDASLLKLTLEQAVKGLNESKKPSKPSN
How it was run: as §2

SMILES | NDM1 EC30016 MITC95 [1] [µM] | IMP1 SM5741 MITC95 [2] [µM] | VIM1 KP599644 MITC95 [3] [µM] | IC50 (VIM-1) [nM] | IC50 (NDM-1) [nM] | IC50 (IMP-1) [nM]
CC(C)C[C@H](C(=O)O)[C@H](Cc1ccc(-c2ccc([C@@H]3OC(=O)N[C@@H]3C)cc2)cn1)c1nn[nH]n1 [Example 173, (2S)-4-methyl-2-[(1S)-2-(5-{4-[(4R,5S)-4-methyl-2-oxo-1,3-oxazolidin-5-yl]phenyl}pyridin-2-yl)-1-(2H-tetrazol-5-yl)ethyl]pentanoic acid] | 25 | 31 | >200 | 110 | 27 | 500
CC(C)C[C@H](C(=O)O)[C@H](Cc1ccc(-c2ccc(CN)cc2)cn1)c1nn[nH]n1 [Example 174, (2S)-2-[(1S)-2-{5-[4-(aminomethyl)phenyl]pyridin-2-yl}-1-(2H-tetrazol-5-yl)ethyl]-4-methylpentanoic acid] | 9.4 | 50 | 25 | 110 | 240 | 2700
CC(C)C[C@H](C(=O)O)[C@H](Cc1ccc(-c2ccc(S(N)(=O)=O)cc2)cn1)c1nn[nH]n1 [Example 175, (2S)-4-methyl-2-[(1S)-2-[5-(4-sulfamoylphenyl)pyridin-2-yl]-1-(2H-tetrazol-5-yl)ethyl]pentanoic acid] | 18.8 | 75 | 50 | 12 | 19 | 840
CC(C)C[C@H](C(=O)O)[C@H](Cc1ccc(-c2ccc(N)nc2)nc1)c1nn[nH]n1 [Example 176, (2S)-2-[(1S)-2-(6′-amino-2,3′-bipyridin-5-yl)-1-(2H-tetrazol-5-yl)ethyl]-4-methylpentanoic acid] | 16 | 6.2 | 25 | 5.7 | 25 | 150
CC(C)C[C@H](C(=O)O)[C@H](Cc1ccc(-c2ccc(CO)cc2)nc1)c1nn[nH]n1 [Example 177, (2S)-2-[(1S)-2-{6-[4-(hydroxymethyl)phenyl]pyridin-3-yl}-1-(2H-tetrazol-5-yl)ethyl]-4-methylpentanoic acid] | 12.5 | 4.7 | 38 | 5.1 | 40 | 140
CC(C)C[C@H](C(=O)O)[C@H](Cc1ccc(-c2ccnc(N)c2)nc1)c1nn[nH]n1 [Example 178, (2S)-2-[(1S)-2-(2′-amino-2,4′-bipyridin-5-yl)-1-(2H-tetrazol-5-yl)ethyl]-4-methylpentanoic acid] | 9.4 | 12.5 | 25 | 2.4 | 43 | 390
CC(C)C[C@H](C(=O)O)[C@H](Cc1ccc(-c2ccnc(N)c2)cn1)c1nn[nH]n1 [Example 179, (2S)-2-[(1S)-2-(2′-amino-3,4′-bipyridin-6-yl)-1-(2H-tetrazol-5-yl)ethyl]-4-methylpentanoic acid] | 12.5 | 38 | 50 | 24 | 66 | 1300
CC(C)C[C@H](C(=O)O)[C@H](Cc1ccc(-c2ccc3c(c2)OCC(=O)N3)nc1)c1nn[nH]n1 [Example 180, (2S)-4-methyl-2-[(1S)-2-[6-(3-oxo-3,4-dihydro-2H-1,4-benzoxazin-7-yl)pyridin-3-yl]-1-(2H-tetrazol-5-yl)ethyl]pentanoic acid] | 25 | 3.1 | 50 | 1.7 | 17 | 130
CC(C)C[C@H](C(=O)O)[C@H](Cc1ccc(C2=CCNC2)nc1)c1nn[nH]n1 [Example 181, (2S)-2-[(1S)-2-[6-(2,5-dihydro-1H-pyrrol-3-yl)pyridin-3-yl]-1-(2H-tetrazol-5-yl)ethyl]-4-methylpentanoic acid] | 38 | 100 | 75 | 17 | 1000 | 4400
CCC[C@H](C(=O)O)[C@@H](Cc1ccc(-c2ccc3c(c2)OCC(=O)N3)cn1)c1nnn[nH]1 [Example 182, (2S)-2-[(1R)-2-[5-(3-oxo-3,4-dihydro-2H-1,4-benzoxazin-7-yl)pyridin-2-yl]-1-(1H-tetrazol-5-yl)ethyl]pentanoic acid] | 150 | >200 | >200 | 330 | 1000 | 16000
CCC[C@H](C(=O)O)[C@H](Cc1ccc(NCC2CCCN2CC)cc1)c1nn[nH]n1 (stereo partly drawn) [Example 215, (2S)-2-[(1S)-2-(4-{[(1-ethylpyrrolidin-2-yl)methyl]amino}phenyl)-1-(2H-tetrazol-5-yl)ethyl]pentanoic acid] | 12.5 | 18.8 | 50 | 29 | 170 | 1100
CCC[C@H](C(=O)O)[C@H](Cc1ccc(NCCN2CCOCC2)cc1)c1nn[nH]n1 [Example 216, (2S)-2-[(1S)-2-{4-[(2-morpholin-4-ylethyl)amino]phenyl}-1-(2H-tetrazol-5-yl)ethyl]pentanoic acid] | 31 | 18.8 | 150 | 110 | 140 | 490
CCC[C@H](C(=O)O)[C@H](Cc1ccc(NCCN2CCCCC2)cc1)c1nn[nH]n1 [Example 217, (2S)-2-[(1S)-2-{4-[(2-piperidin-1-ylethyl)amino]phenyl}-1-(2H-tetrazol-5-yl)ethyl]pentanoic acid] | 12.5 | 50 | 50 | 38 | 500 | 2400
CCC[C@H](C(=O)O)[C@H](Cc1ccc(NCC(=O)N(C)C)cc1)c1nn[nH]n1 [Example 218, (2S)-2-[(1S)-2-(4-{[2-(dimethylamino)-2-oxoethyl]amino}phenyl)-1-(2H-tetrazol-5-yl)ethyl]pentanoic acid] | 31 | 25 | 50 | 21 | 40 | 460
CCC[C@H](C(=O)O)[C@H](Cc1ccc(NCCN2CCN(C(C)C)CC2)cc1)c1nn[nH]n1 [Example 219, (2S)-2-[(1S)-2-[4-({2-[4-(1-methylethyl)piperazin-1-yl]ethyl}amino)phenyl]-1-(2H-tetrazol-5-yl)ethyl]pentanoic acid] | 25 | 25 | 100 | 93 | 210 | 1000
CCC[C@H](C(=O)O)[C@H](Cc1ccc(NCCN2CCCC(O)C2)cc1)c1nn[nH]n1 (stereo partly drawn) [Example 220, (2S)-2-[(1S)-2-(4-{[2-(3-hydroxypiperidin-1-yl)ethyl]amino}phenyl)-1-(2H-tetrazol-5-yl)ethyl]pentanoic acid] | 25 | 50 | 50 | 75 | 360 | 1600
